Measurements as given in PubChem BioAssay AID330 (DTP/NCI, 2004).
Where “and” joins values, the source holds several entries; their conditions need not be identical. Equal values may be shown once. Inconclusive results and toxic doses are left out. How the source made its calls: active means survival T/C of 150% or more; inactive means T/C below 125% in these data. Peptide text beside a SMILES is read from it. * marks the point of attachment. Cbz = O=C(OCc1ccccc1)*

Test system: P388 leukemia ip, CD2F1 mice, survival T/C
Experiment: NCI In Vivo Anticancer Drug Screen. Data for tumor model P388 Leukemia (intraperitoneal) in CD2F1 (CDF1) mice
Settings: endpoint: median survival time, higher = longer survival
Method in brief: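 Mice carrying the transplanted tumor received test compound or vehicle. Survival was recorded in each group, and the value is the treated-group measurement divided by that of the vehicle-treated control group.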

[1] = dose: 50.0 mg/kg/injection, schedule: Q01DX009 (ip), vehicle: saline with Tween-80
[2] = dose: 100.0 mg/kg/injection, schedule: Q01DX009 (ip), vehicle: saline with Tween-80
[3] = dose: 50.0 mg/kg/injection, schedule: Q01DX005 (ip), vehicle: Klucel (hydroxypropylcellulose) (HPC)
[4] = dose: 100.0 mg/kg/injection, schedule: Q01DX005 (ip), vehicle: Klucel (hydroxypropylcellulose) (HPC)
[5] = dose: 200.0 mg/kg/injection, schedule: Q01DX005 (ip), vehicle: Klucel (hydroxypropylcellulose) (HPC)
[6] = dose: 100.0 mg/kg/injection, schedule: Q04DX003 (ip), vehicle: saline with Tween-80
[7] = dose: 200.0 mg/kg/injection, schedule: Q04DX003 (ip), vehicle: saline with Tween-80
[8] = dose: 400.0 mg/kg/injection, schedule: Q04DX003 (ip), vehicle: saline with Tween-80
[9] = dose: 100.0 mg/kg/injection, schedule: Q01DX001 (ip), vehicle: Klucel (hydroxypropylcellulose) (HPC)
[10] = dose: 200.0 mg/kg/injection, schedule: Q01DX001 (ip), vehicle: Klucel (hydroxypropylcellulose) (HPC)
[11] = dose: 400.0 mg/kg/injection, schedule: Q01DX001 (ip), vehicle: Klucel (hydroxypropylcellulose) (HPC)
[12] = dose: 50.0 mg/kg/injection, schedule: Q01DX009 (ip), vehicle: Klucel (hydroxypropylcellulose) (HPC)
[13] = dose: 100.0 mg/kg/injection, schedule: Q01DX009 (ip), vehicle: Klucel (hydroxypropylcellulose) (HPC)
[14] = dose: 200.0 mg/kg/injection, schedule: Q01DX009 (ip), vehicle: Klucel (hydroxypropylcellulose) (HPC)
[15] = dose: 6.25 mg/kg/injection, schedule: Q01DX005 (ip), vehicle: Klucel (hydroxypropylcellulose) (HPC)
[16] = dose: 12.5 mg/kg/injection, schedule: Q01DX005 (ip), vehicle: Klucel (hydroxypropylcellulose) (HPC)
[17] = dose: 60.0 mg/kg/injection, schedule: Q01DX005 (ip), vehicle: saline with Tween-80
[18] = dose: 120.0 mg/kg/injection, schedule: Q01DX005 (ip), vehicle: saline with Tween-80
[19] = dose: 240.0 mg/kg/injection, schedule: Q01DX005 (ip), vehicle: saline with Tween-80
[20] = dose: 50.0 mg/kg/injection, schedule: Q01DX005 (ip), vehicle: saline with Tween-80
[21] = dose: 100.0 mg/kg/injection, schedule: Q01DX005 (ip), vehicle: saline with Tween-80
[22] = dose: 200.0 mg/kg/injection, schedule: Q01DX005 (ip), vehicle: saline with Tween-80
[23] = dose: 60.0 mg/kg/injection, schedule: Q01DX005 (ip), vehicle: Klucel (hydroxypropylcellulose) (HPC)
[24] = dose: 120.0 mg/kg/injection, schedule: Q01DX005 (ip), vehicle: Klucel (hydroxypropylcellulose) (HPC)
[25] = dose: 240.0 mg/kg/injection, schedule: Q01DX005 (ip), vehicle: Klucel (hydroxypropylcellulose) (HPC)
[26] = dose: 12.5 mg/kg/injection, schedule: Q04DX003 (ip), vehicle: saline
[27] = dose: 25.0 mg/kg/injection, schedule: Q04DX003 (ip), vehicle: saline
[28] = dose: 50.0 mg/kg/injection, schedule: Q04DX003 (ip), vehicle: saline

Measured: T/C

COC1OCN(Cc2ccccc2)CC1(C)C (stereo not drawn)
inactive: [1] 108 % of control | [2] 120 % of control

O=C1CSc2nc3c(I)cc(I)cc3c(=O)n21
inactive: [3] 101 % of control | [4] 100 % of control | [5] 98 % of control

CCN(CC)Cc1cc(C)c(O)c(N=Nc2ccc([N+](=O)[O-])c(OC)c2)c1C
inactive: [6] 92 % of control | [7] 99 % of control | [8] 119 % of control

O=C(NC(CO)C(=O)NC(Cc1ccc(O)cc1)C(=O)O)OCc1ccccc1 (stereo not drawn) (Cbz-Ser-Tyr-OH; configuration not given here)
inactive: [3] 98 % of control | [4] 100 % of control | [5] 101 % of control

NS(=O)(=O)c1ccc(N=CC2C(=O)N(c3ccccc3)N(c3ccccc3)C2=O)cc1
inactive: [9] 87 % of control | [10] 89 % of control | [11] 92 % of control

Cc1ccc2c(c1)C(=O)c1ccccc1/C2=C1\c2ccccc2C(=O)c2cc(C)ccc21
inactive: dose: 50.0 mg/kg/injection, schedule: Q01DX005 (ip), vehicle: Klucel + Tween-80 105 % of control | dose: 100.0 mg/kg/injection, schedule: Q01DX005 (ip), vehicle: Klucel + Tween-80 89 % of control | dose: 200.0 mg/kg/injection, schedule: Q01DX005 (ip), vehicle: Klucel + Tween-80 89 % of control

COc1ccc(CCN2COc3ccc4ccc(=O)oc4c3C2)cc1OC
inactive: [2] 100 % of control | [6] 110 % of control | [7] 115 % of control | dose: 400.0 mg/kg/injection, schedule: Q01DX009 (ip), vehicle: saline with Tween-80 100 % of control | [8] 110 % of control

CC(=O)CN1CCSC1=N
inactive: dose: 100.0 mg/kg/injection, schedule: Q01DX001 (ip), vehicle: saline 97 % of control

Nn1nnnc1-c1ccccc1
inactive: [12] 96 % of control | [13] 100 % of control | [14] 95 % of control

c1cc(-c2nc3ccc(-c4nc5ccc(C6=NCCN6)cc5[nH]4)cc3[nH]2)ccc1C1=NCCN1
inactive: [15] 100 % of control | [16] 98 % of control | [3] 88 % of control

CCCCN1C(=O)c2ccc(N)cc2C1=O
inactive: [12] 100 % of control | [13] 97 % of control | [14] 110 % of control

N#CC(C(=O)C(=O)Nc1ccc(Cl)c(Cl)c1)c1c(Cl)cccc1Cl (stereo not drawn)
inactive: [17] 102 % of control | [18] 97 % of control | [19] 89 % of control

COc1ccc(Cc2nnc3nc(OC)c(-c4ccc(OC)cc4)n3n2)cc1
inactive: [20] 108 % of control and 87 % of control | [21] 108 % of control | [22] 86 % of control and 98 % of control

CCC(C)(C(=O)Nc1ccc2nc(C)cc(N)c2c1)C(=O)Nc1ccc2nc(C)cc(N)c2c1
inactive: [20] 87 % of control | [21] 96 % of control | [22] 100 % of control

CN(C)CCN(C)CCC(=O)/C=C/c1ccccc1
inactive: dose: 12.5 mg/kg/injection, schedule: Q01DX001 (ip), vehicle: saline 94 % of control | dose: 25.0 mg/kg/injection, schedule: Q01DX001 (ip), vehicle: saline 101 % of control | dose: 50.0 mg/kg/injection, schedule: Q01DX001 (ip), vehicle: saline 111 % of control

CCC1(C(=O)Sc2ccccc2)OC1c1ccccc1 (stereo not drawn)
inactive: [9] 89 % of control | [10] 90 % of control | [11] 90 % of control

CC1(C)S[C@@H]2[C@H](NC(=O)C3(N)CCCCC3)C(=O)N2[C@H]1C(=O)O
inactive: [3] 103 % of control | [4] 103 % of control | [5] 102 % of control

CC12CC3(Br)CC(Br)(C1)CC(CC(=O)O)(C2)C3
inactive: [12] 103 % of control | [13] 112 % of control | [14] 112 % of control

CCCCCCCCCCNCCSSCc1ccc(OC)cc1
inactive: [15] 103 % of control | [16] 103 % of control | dose: 25.0 mg/kg/injection, schedule: Q01DX005 (ip), vehicle: Klucel (hydroxypropylcellulose) (HPC) 100 % of control

O=c1cc(CBr)c2ccccc2[nH]1
inactive: dose: 6.25 mg/kg/injection, schedule: Q01DX009 (ip), vehicle: saline with Tween-80 95 % of control | dose: 12.5 mg/kg/injection, schedule: Q01DX009 (ip), vehicle: saline with Tween-80 95 % of control | dose: 25.0 mg/kg/injection, schedule: Q01DX009 (ip), vehicle: saline with Tween-80 86 % of control

CN1C(=O)N(C)C2CC(=O)c3c(ccc4c3ncn4C)N2C1=O (stereo not drawn)
inactive: [23] 104 % of control | [24] 108 % of control | [25] 114 % of control

COc1cc2c(C)cc(=O)oc2c(OCC(O)CN2CCCC2)c1OC (stereo not drawn)
inactive: dose: 60.0 mg/kg/injection, schedule: Q01DX005 (ip), vehicle: saline 96 % of control | dose: 120.0 mg/kg/injection, schedule: Q01DX005 (ip), vehicle: saline 99 % of control

COc1cc(O)cc2c1C(=O)C(C)O2 (stereo not drawn)
inactive: [23] 101 % of control | [24] 101 % of control | [25] 91 % of control

OCCc1nccnn1
inactive: [26] 104 % of control | [27] 107 % of control | [28] 104 % of control | dose: 200.0 mg/kg/injection, schedule: Q04DX003 (ip), vehicle: saline 87 % of control | dose: 400.0 mg/kg/injection, schedule: Q04DX003 (ip), vehicle: saline 86 % of control

COC(=O)NCP(=S)(CNC(=O)OC)CNC(=O)OC
inactive: [12] 105 % of control | [13] 96 % of control | [14] 95 % of control

CCC1(O)OC(=O)C(C)=C1C (stereo not drawn)
inactive: [26] 98 % of control | [27] 95 % of control | [28] 99 % of control

N#CCCN(CCC#N)c1ccc(/C=C2\C(=O)N(c3ccc(S(=O)(=O)O)cc3)N=C2C(=O)O)cc1
inactive: [17] 102 % of control | [18] 94 % of control | [19] 105 % of control

COC(c1nc(N)no1)c1c(Cl)cccc1Cl (stereo not drawn)
inactive: [3] 97 % of control | [4] 91 % of control | [5] 92 % of control

Cn1nnc(-c2ccc(C(=O)O)cc2)n1
inactive: [3] 91 % of control | [4] 91 % of control

O=C(NC(Cc1ccc(Br)cc1)C(=O)O)c1cccc(Br)c1 (stereo not drawn)
inactive: [3] 91 % of control | [4] 102 % of control | [5] 104 % of control

CN(C)c1nc(OC2C(C(O)CO)OC3OC(C)(C)OC32)nc(N(C)C)n1 (stereo not drawn)
inactive: [6] 105 % of control | [7] 95 % of control | [8] 92 % of control

Cc1ccc(S(=O)c2cc(C(C)(C)C)cc(C(C)(C)C)c2O)cc1 (stereo not drawn)
inactive: [1] 103 % of control | [2] 110 % of control | dose: 200.0 mg/kg/injection, schedule: Q01DX009 (ip), vehicle: saline with Tween-80 88 % of control

S=C(SSC(=S)Sc1ccccc1)Sc1ccccc1
inactive: dose: 100.0 mg/kg/injection, schedule: Q04DX002 (ip), vehicle: Klucel (hydroxypropylcellulose) (HPC) 112 % of control | dose: 200.0 mg/kg/injection, schedule: Q04DX002 (ip), vehicle: Klucel (hydroxypropylcellulose) (HPC) 107 % of control | dose: 400.0 mg/kg/injection, schedule: Q04DX002 (ip), vehicle: Klucel (hydroxypropylcellulose) (HPC) 102 % of control

C[As](C)SC1CCC2(C)C(=CCC3C4CCC(=O)C4(C)CCC32)C1 (stereo not drawn)
inactive: dose: 12.5 mg/kg/injection, schedule: Q01DX009 (ip), vehicle: distilled water + Tween-80 92 % of control | dose: 25.0 mg/kg/injection, schedule: Q01DX009 (ip), vehicle: distilled water + Tween-80 89 % of control and 96 % of control | dose: 50.0 mg/kg/injection, schedule: Q01DX009 (ip), vehicle: distilled water + Tween-80 107 % of control and 97 % of control | dose: 100.0 mg/kg/injection, schedule: Q01DX009 (ip), vehicle: distilled water + Tween-80 119 % of control and 121 % of control | dose: 200.0 mg/kg/injection, schedule: Q01DX009 (ip), vehicle: distilled water + Tween-80 107 % of control and 90 % of control
